Source: publication PMC13422867, “An orally available PfPKG inhibitor blocks Plasmodium’s infection of the liver” (PLOS Pathogens, 2026)

How the values were obtained:
P. cynomolgi schizont = assay: Schizont formation in primary simian hepatocytes, high-content imaging; format: cell-based, Plasmodium cynomolgi; conditions: Plasmodium cynomolgi, Hepatocyte
Experimental: (§1) Liver stage antimalarial activity was evaluated using sporozoites from P. falciparum (NF54 strain) and P. cynomolgi bastianellii (B strain). P. falciparum-infected Anopheles stephensi mosquitoes were reared at WRAIR, while P. cynomolgi-infected Anopheles dirus mosquitoes were obtained from the Armed Forces Research Institute of Medical Sciences (AFRIMS), Thailand. Sporozoites were isolated by dissecting salivary glands under sterile conditions, followed by gentle mechanical disruption. Freshly isolated sporozoites were immediately used for hepatocyte infection.
(§2) Primary cryopreserved hepatocytes were selected based on host-parasite compatibility: primary simian hepatocytes (lot OQB) for P. cynomolgi and human hepatocytes (lot BGW) for P. falciparum (BioIVT Inc., Baltimore, MD, USA). Cells were thawed according to the manufacturer’s protocol and seeded into 384-well collagen-coated assay plates (Greiner Bio-One, Monroe, NC, USA) using InVitroGro CP plating medium (BioIVT). Seeding densities were optimized for uniform monolayer formation, and hepatocytes were allowed to adhere for 24–48 hours before infection. Sporozoites were added at a 1:1.1 hepatocyte-to-sporozoite ratio within 48 hours post-seeding. Automated robotic systems were used for media changes and compound additions to ensure assay consistency and minimize variability associated with manual pipetting.
(§3) Test compounds (PfPKG inhibitors) and assay drug controls (KDU-691 and tafenoquine) were solubilized in DMSO or PBS and serially diluted into 8- or 12-point, 2- or 3-fold series, achieving final assay concentrations ranging from 20 µM to 0.019 µM. Compounds were introduced using a calibrated pin tool controlled by robotic arms (V&P Scientific), ensuring a 1:1000 dilution into assay wells. Media were replenished daily with fresh drug-containing HCM. […]
(§4) Cells were fixed using 4% paraformaldehyde for 20 minutes at room temperature, followed by three PBS washes, and stored at 4°C until further processing. Parasite detection was performed using species-specific primary antibodies, with P. cynomolgi parasites labeled using a mouse monoclonal anti-Plasmodium GAPDH antibody (1.6 μg/mL, European Malaria Reagent Repository) and P. falciparum parasites detected using a rabbit polyclonal anti-PfHSP70 antibody (1:70 dilution, LS Bio, USA). […]
(§5) High-content imaging was performed using the Operetta CLS system (Revvity) and image analysis was performed with Harmony software version 4.9 (Revvity, Waltham, MA, USA). Images were acquired at 10x or 20x magnification using DAPI and TRITC fluorescence channels. Following the established protocol, parasites were classified as hypnozoites or schizonts based on fluorescence intensity (mean and maximum), morphological features (cell roundness and size), and segmentation criteria. […]

PfPKG = conditions: cited from earlier work
[1] = tested on: P. falciparum CamWT and CamC580Y; conditions: ring-stage assays; cited from earlier work
[2] = tested on: P. berghei sporozoites infecting HepG2 cells; conditions: cited from earlier work
ROCK2 = molecular target: T1, ROCK2 (Homo sapiens, UniProt O75116); assay: KdElect binding affinity assay; conditions: read-out: ROCK2 Experimental Kd
T1 construct: purchased Eurofins (DiscoverX)
T1 sequence (O75116 whole entry): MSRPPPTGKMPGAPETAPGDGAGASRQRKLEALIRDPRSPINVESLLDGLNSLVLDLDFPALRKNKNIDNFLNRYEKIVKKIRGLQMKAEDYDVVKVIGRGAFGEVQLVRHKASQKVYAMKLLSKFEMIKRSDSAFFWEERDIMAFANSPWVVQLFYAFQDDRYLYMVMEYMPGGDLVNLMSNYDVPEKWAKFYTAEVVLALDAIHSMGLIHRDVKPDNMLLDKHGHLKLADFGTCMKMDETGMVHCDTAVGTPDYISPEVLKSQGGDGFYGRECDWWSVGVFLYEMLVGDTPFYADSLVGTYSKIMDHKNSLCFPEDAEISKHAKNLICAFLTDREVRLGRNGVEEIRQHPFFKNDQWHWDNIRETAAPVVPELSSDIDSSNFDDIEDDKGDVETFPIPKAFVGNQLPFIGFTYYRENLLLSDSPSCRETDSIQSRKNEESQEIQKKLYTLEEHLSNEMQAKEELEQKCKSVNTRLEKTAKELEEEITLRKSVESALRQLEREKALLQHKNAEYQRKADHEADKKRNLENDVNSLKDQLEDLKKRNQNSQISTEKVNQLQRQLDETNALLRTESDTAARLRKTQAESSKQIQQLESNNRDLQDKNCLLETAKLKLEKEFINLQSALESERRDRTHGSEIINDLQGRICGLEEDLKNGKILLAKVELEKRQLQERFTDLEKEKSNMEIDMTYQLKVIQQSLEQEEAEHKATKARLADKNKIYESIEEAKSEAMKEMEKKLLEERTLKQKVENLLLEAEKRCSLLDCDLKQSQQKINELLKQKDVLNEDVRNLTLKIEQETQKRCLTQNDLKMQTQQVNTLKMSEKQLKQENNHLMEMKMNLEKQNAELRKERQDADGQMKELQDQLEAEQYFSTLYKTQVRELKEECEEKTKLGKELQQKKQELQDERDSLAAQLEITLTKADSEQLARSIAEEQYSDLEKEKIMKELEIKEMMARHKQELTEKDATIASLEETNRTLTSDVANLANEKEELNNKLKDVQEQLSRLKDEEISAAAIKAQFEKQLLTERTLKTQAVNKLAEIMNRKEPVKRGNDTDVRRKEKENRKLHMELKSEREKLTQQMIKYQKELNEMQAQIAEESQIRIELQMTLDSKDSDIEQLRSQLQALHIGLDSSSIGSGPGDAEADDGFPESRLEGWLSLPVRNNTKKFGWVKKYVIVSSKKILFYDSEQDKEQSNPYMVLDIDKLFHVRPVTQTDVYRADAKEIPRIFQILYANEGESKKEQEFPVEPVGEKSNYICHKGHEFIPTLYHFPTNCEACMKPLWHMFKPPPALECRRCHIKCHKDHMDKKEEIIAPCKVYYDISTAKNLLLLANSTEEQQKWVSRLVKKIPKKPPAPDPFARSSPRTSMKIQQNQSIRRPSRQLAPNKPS
Experimental: (§6) Off-target kinase inhibition was assessed using the DiscoverX scanMAX (Eurofins) panel at 1 µM compound concentration. Binding affinities of CIT, ROCK1 and ROCK2 were evaluated using the KdElect assay (Eurofins).

CIT = molecular target: T2, CIT (Homo sapiens, UniProt O14578); assay: KdElect binding affinity assay; conditions: read-out: CIT Experimental Kd
T2 construct: purchased Eurofins (DiscoverX)
T2 sequence (O14578 whole entry): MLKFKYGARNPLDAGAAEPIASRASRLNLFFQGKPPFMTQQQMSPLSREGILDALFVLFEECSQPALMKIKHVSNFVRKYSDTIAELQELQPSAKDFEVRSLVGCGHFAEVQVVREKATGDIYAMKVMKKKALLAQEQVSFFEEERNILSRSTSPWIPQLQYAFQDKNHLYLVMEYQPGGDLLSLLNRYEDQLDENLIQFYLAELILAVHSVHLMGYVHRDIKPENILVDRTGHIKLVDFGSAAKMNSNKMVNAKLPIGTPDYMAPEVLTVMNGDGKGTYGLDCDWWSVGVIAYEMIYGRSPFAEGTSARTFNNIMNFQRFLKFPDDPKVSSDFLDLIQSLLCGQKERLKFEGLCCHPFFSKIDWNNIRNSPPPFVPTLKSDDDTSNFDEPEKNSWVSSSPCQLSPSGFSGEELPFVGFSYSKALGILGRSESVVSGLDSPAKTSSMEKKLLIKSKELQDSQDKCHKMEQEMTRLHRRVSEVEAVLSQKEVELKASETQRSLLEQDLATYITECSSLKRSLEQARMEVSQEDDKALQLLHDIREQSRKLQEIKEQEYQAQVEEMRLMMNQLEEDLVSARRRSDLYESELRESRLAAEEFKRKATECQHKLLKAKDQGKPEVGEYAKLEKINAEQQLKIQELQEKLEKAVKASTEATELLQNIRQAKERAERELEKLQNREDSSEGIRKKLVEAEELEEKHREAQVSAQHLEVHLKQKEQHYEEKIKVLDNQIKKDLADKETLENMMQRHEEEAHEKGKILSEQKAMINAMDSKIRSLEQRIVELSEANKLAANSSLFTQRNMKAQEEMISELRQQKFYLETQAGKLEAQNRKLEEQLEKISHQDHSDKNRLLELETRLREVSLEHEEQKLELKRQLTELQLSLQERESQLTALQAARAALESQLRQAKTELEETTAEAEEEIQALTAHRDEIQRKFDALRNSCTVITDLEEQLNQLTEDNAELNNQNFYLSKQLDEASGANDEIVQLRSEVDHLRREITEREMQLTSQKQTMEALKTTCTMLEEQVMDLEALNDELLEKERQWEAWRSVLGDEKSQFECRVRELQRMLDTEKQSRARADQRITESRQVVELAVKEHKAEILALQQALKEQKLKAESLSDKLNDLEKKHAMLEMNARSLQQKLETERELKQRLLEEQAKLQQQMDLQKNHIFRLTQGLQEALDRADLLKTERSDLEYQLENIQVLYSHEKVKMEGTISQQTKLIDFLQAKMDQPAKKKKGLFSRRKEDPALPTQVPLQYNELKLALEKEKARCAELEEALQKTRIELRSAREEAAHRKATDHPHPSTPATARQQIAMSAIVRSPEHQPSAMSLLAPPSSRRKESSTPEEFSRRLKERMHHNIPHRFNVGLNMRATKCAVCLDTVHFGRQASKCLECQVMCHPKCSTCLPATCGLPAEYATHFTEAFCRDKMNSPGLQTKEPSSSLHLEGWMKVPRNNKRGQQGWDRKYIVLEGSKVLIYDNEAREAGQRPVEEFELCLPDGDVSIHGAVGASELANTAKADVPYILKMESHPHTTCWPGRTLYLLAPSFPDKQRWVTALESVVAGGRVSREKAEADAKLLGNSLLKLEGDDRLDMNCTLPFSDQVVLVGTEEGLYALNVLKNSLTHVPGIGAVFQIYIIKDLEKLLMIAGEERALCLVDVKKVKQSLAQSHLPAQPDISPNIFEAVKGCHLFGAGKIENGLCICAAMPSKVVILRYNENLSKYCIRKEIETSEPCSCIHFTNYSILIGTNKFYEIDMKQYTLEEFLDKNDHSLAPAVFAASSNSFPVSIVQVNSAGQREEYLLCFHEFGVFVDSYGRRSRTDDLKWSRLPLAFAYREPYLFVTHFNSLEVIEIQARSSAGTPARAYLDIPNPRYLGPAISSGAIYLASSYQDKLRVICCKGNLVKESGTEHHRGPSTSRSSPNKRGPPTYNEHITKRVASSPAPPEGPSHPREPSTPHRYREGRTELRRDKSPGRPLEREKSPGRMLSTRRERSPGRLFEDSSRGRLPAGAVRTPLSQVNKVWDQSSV
Experimental: as §6

[3] = tested on: P. falciparum sporozoites; assay: Sporozoite infection of primary human hepatocytes, high-content imaging; format: cell-based, Plasmodium falciparum; conditions: Plasmodium falciparum, Hepatocyte
Experimental: as §1, with “infection. […]” for “infection.”
as §4
High-content imaging was performed using the Operetta CLS system (Revvity) and image analysis was performed with Harmony software version 4.9 (Revvity, Waltham, MA, USA). Images were acquired at 10x or 20x magnification using DAPI and TRITC fluorescence channels. […]

[4] = in vitro; cited from earlier work
[5] = tested on: mutant P. falciparum parasites carrying a Thr618Gln substitution; conditions: cited from earlier work
[6] = tested on: P. berghei sporozoites (PbLuc-GFP); assay: In vivo chemoprotective efficacy against sporozoite liver infection; design: species or system Plasmodium berghei in mice; conditions: 10 mg/kg x 3; for Prepatent period mean ± sd: blood stages by flow cytometry
Experimental: In the first experiment, mice were administered three doses, intravenously (IV) or orally (PO), of compound (10 mg/kg) - two prior to sporozoite inoculation to block sporozoite invasion of hepatocytes and the third at 36 hpi to prevent egress of liver stages (Fig 3A). In vivo bioluminescent imaging (IVIS) of mice was utilized to detect and quantify relative parasitemia in the liver and flow cytometry was used to detect the appearance of blood stage parasites. Vehicle-treated mice were used as a negative control.
In vivo chemoprotective efficacy was evaluated using luciferase-expressing P. berghei ANKA sporozoites. […] Liver stage parasite burden was measured 42–48 h p.i. by bioluminescence imaging (IVIS Spectrum). Photon flux from the liver region was quantified using Living Image software. All animal procedures were approved by the Rutgers Institutional Animal Care and Use Committee (IACUC).

hERG = conditions: in vitro; cited from earlier work
P. cynomolgi hypnozoite = assay: Hypnozoite formation in primary simian hepatocytes, high-content imaging; format: cell-based, Plasmodium cynomolgi; conditions: Plasmodium cynomolgi, Hepatocyte
Experimental: as §1, §2, §3, §4, §5

C[C@@H]1CN(C)CC[C@@H]1c1cc(-c2ccncc2)c(-c2ccc(F)cc2)[nH]1.Cl.Cl [RUPB-61, 4-{5-[(3S,4S)-1,3-Dimethylpiperidin-4-yl]-2-(4-fluorophenyl)-1H-pyrrol-3-yl}pyridine Dihydrochloride]
IC50 (P. cynomolgi schizont): 170 nM | IC50 against PfPKG variants, RUPB-60 compared with RUPB-61 (PfPKG): similar | IC50 against DHA-sensitive CamWT compared with DHA-resistant CamC580Y [1]: similar | activity against P. berghei sporozoites infecting HepG2 cells [2]: active | Kd (ROCK2): 13 nM | Kd (CIT): 5.2 nM | IC50 [3]: 79 nM | first-pass metabolism [4]: minimal | increase in IC50 against Thr618Gln gatekeeper mutant parasites [5]: 15 fold | mice showing liver parasitemia as late as 144 hpi ([6]; IV or PO, 10 mice, bioluminescent imaging): none | mice displaying blood stage parasites in the 3 week observation period ([6]; IV or oral): none | No. of mice patent by D21/ No. of mice inoculated ([6]; Intravenous): 0/5 | Prepatent period mean ± sd ([6]; Intravenous): negative | No. of mice patent by D21/ No. of mice inoculated ([6]; Oral): 0/5 | Prepatent period mean ± sd ([6]; Oral): negative | cardiovascular risk as judged by hERG inhibition (hERG): low preliminary cardiovascular risks | IC50 (P. cynomolgi hypnozoite): 190 nM
